In patent US20130303768A1, “METHOD AND SUBSTANCES FOR PREPARATION OF N-SUBSTITUTED PYRIDINIUM COMPOUNDS” (ROCHE DIAGNOSTICS OPERATIONS, INC., priority 2011, published 2013):

Columns and labels:
GlucDH mut 2 = assay: Enzymatic reduction of Acetyl-cNAD by GlucDH mut 2 with glucose; type: biochemical; conditions: 25° C., Tris-buffer pH 8.5, glucose, UV/VIS spectra after 30 min
Experimental: Acetyl-cNADH and for comparison cNAD, cNADP were reduced by using GlucDH mut 2 (WO2010/094632) using the following conditions:
A Dilution buffer (NaCl 0.2 mol/l; Tris 0.1 mol/l; pH 8.5) was prepared as follows: 11.7 g NaCl and 12.1 g Tris (=[…]) were dissolved in 900 ml bidest. water and the pH was adjusted to pH 8.5 by addition of HCL 1N and filled to 1.00 l with bidest. Water.
Glucose-solution: 2.00 g D(+)-Glucose-Monohydrate were dissolved in 10.0 ml bidest. water. The solution is ready for usage after 2 h at room temperature.
GlucDH2-stock-solution: 10.0 mg of the enzyme (Lyo) were dissolved in 1.00 ml Tris-buffer.
Reduction of Acetyl-cNAD-solution (15 mmol/l): 9.90 mg Acetyl-cNAD (Mw=659.47 g/mol) were dissolved in 1.00 ml bidest. water.
100 μl GlucDH2-stock-solution were dissolved in 0.90 ml dilution buffer (dilution factor=10).
1. The tempered (25° C.) reagent solutions were pipetted into a 1 cm plastic cuvette as follows:
(§1) After mixing and tempering to 25° C., the reaction was started by addition of 0.05 ml the above mentioned corresponding GlucDH2-solutions. An UV/VIS spectra was recorded after 30 min.

[1] = UV/VIS absorption spectrum after enzymatic reduction; type: physicochemical; conditions: FIG. 1, reduced form
Experimental: as §1
This is a significant advantage for redox-based assays, since it allows to reduce or avoid the interference from auto-fluorescent compounds comprised in (biological) samples

For `CC(=O)c1ccc[n+]([C@@H]2C[C@H](COP(=O)([O-])OP(=O)(O)OC[C@H]3O[C@@H](n4cnc5c(N)ncnc54)[C@H](O)[C@@H]3O)[C@@H](O)[C@H]2O)c1` [Acetyl-cNAD], the “coenzyme function for a dehydrogenase” value (GlucDH mut 2) was “serves as a coenzyme for a dehyrogenase”.
For Acetyl-cNADH, the absorption maximum [1] was “about 380 nm”.
